According to ChEMBL document CHEMBL3421572, “Synthesis of Schiff base derivatives of 4-(2-aminoethyl)-benzenesulfonamide with inhibitory activity against carbonic anhydrase isoforms I, II, IX and XII” (Bioorg Med Chem Lett, 2015):
Each block holds one compound with its values, some of them ahead of it.

Columns and labels:
Carbonic anhydrase 12 = Carbonic anhydrase 12 (Homo sapiens, UniProt O43570)
Description: Inhibition of recombinant human transmembrane, tumor-associated form of carbonic anhydrase-12 preincubated for 15 mins by stopped flow CO2 hydration assay

[1] = Chemical stability of the compound in HEPES buffer assessed as compound remaining at 10 mg at pH 7.4 measured at 10 hrs by HPLC method; type: physicochemical; settings: read-out: Stability
[2] = Chemical stability of the compound in HEPES buffer assessed as compound remaining at 10 mg at pH 7.4 measured at 5 hrs by HPLC method; type: physicochemical; settings: read-out: Stability
Carbonic anhydrase 9 = Carbonic anhydrase 9 (Homo sapiens, UniProt Q16790)
[3] = Chemical stability of the compound in HEPES buffer assessed as compound remaining at 10 mg at pH 7.4 measured at 0 hr by HPLC method; type: physicochemical; settings: read-out: Stability
[4] = Chemical stability of the compound in HEPES buffer assessed as compound remaining at 10 mg at pH 7.4 measured at 24 hrs by HPLC method; type: physicochemical; settings: read-out: Stability
[5] = Chemical stability of the compound in HEPES buffer assessed as compound remaining at 10 mg at pH 7.4 measured at 3 hrs by HPLC method; type: physicochemical; settings: read-out: Stability
Carbonic anhydrase 1 = Carbonic anhydrase 1 (Homo sapiens, UniProt P00915)
Chain of Carbonic anhydrase 1 (P00915 whole entry): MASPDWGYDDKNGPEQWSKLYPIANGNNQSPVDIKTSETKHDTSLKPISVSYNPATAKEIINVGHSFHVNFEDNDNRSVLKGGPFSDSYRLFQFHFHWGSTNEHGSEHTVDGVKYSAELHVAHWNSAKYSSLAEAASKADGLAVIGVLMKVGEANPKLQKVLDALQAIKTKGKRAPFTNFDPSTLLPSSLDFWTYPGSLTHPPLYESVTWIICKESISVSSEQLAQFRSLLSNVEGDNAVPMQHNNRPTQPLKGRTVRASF
Description: Inhibition of recombinant human cytosolic form of carbonic anhydrase-1 preincubated for 15 mins by stopped flow CO2 hydration assay

Chain of Carbonic anhydrase 12 (O43570 whole entry): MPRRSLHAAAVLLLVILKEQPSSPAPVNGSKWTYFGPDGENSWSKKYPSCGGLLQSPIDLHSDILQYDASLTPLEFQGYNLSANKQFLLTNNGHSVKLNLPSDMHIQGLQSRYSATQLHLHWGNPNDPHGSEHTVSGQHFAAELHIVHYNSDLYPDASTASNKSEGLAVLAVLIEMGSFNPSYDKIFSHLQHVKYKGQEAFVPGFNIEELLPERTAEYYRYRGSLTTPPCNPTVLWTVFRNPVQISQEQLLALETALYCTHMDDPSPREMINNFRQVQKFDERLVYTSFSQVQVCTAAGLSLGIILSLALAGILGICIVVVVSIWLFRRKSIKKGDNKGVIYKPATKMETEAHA

Structure (SMILES): NS(=O)(=O)c1ccc(CC/N=C\c2ccccc2O)cc1
Ki (Carbonic anhydrase 12): 46.8 nM
Ki (Carbonic anhydrase 9): 138 nM
Ki (Carbonic anhydrase 1): 393 nM

Structure (SMILES): NS(=O)(=O)c1ccc(CC/N=C\c2cc(Br)cc(Br)c2O)cc1
Ki (Carbonic anhydrase 9): 163 nM

Structure (SMILES): NS(=O)(=O)c1ccc(CC/N=C\c2ccccc2)cc1
remaining at 10 h [1]: 51%
remaining at 5 h [2]: 89%
Ki (Carbonic anhydrase 9): 220 nM
remaining at 0 h [3]: 100%
remaining at 24 h [4]: 14%
remaining at 3 h [5]: 100%

Structure (SMILES): Cc1cccc(/C=N\CCc2ccc(S(N)(=O)=O)cc2)c1O
Ki (Carbonic anhydrase 9): 295 nM

Structure (SMILES): COc1ccc(/C=N\CCc2ccc(S(N)(=O)=O)cc2)cc1
remaining at 10 h [1]: 43%
remaining at 5 h [2]: 72%
Ki (Carbonic anhydrase 9): 231 nM
remaining at 0 h [3]: 100%
remaining at 24 h [4]: 8%
remaining at 3 h [5]: 100%

Structure (SMILES): NS(=O)(=O)c1ccc(CC/N=C\c2cc(Br)ccc2O)cc1
Ki (Carbonic anhydrase 9): 187 nM

Structure (SMILES): Cc1ccc(/C=N\CCc2ccc(S(N)(=O)=O)cc2)cc1
Ki (Carbonic anhydrase 9): 123 nM

Structure (SMILES): NS(=O)(=O)c1ccc(CC/N=C\c2cc(Cl)ccc2O)cc1
Ki (Carbonic anhydrase 9): 106 nM

Structure (SMILES): NS(=O)(=O)c1ccc(CC/N=C\c2ccc(OCc3ccccc3)cc2)cc1
Ki (Carbonic anhydrase 9): 230 nM

Structure (SMILES): NS(=O)(=O)c1ccc(CC/N=C\c2cc(Cl)cc(Cl)c2O)cc1
Ki (Carbonic anhydrase 9): 190 nM

Structure (SMILES): CN(C)c1ccc(/C=N\CCc2ccc(S(N)(=O)=O)cc2)cc1
Ki (Carbonic anhydrase 12): 3120 nM
Ki (Carbonic anhydrase 9): 39.1 nM
Ki (Carbonic anhydrase 1): 453 nM

Structure (SMILES): NS(=O)(=O)c1ccc(CCNCc2ccccc2O)cc1
Ki (Carbonic anhydrase 9): 3.9 nM

Structure (SMILES): COc1ccc(CNCCc2ccc(S(N)(=O)=O)cc2)cc1
Ki (Carbonic anhydrase 12): 37.7 nM
remaining at 10 h [1]: 100%
remaining at 5 h [2]: 100%
Ki (Carbonic anhydrase 1): 4.6 nM
remaining at 0 h [3]: 100%
remaining at 24 h [4]: 100%
remaining at 3 h [5]: 100%

Structure (SMILES): CCN[C@H]1C[C@H](C)S(=O)(=O)c2sc(S(N)(=O)=O)cc21 [DORZOLAMIDE]
Ki (Carbonic anhydrase 12): 3 nM

Further lines, results first:

Ki (Carbonic anhydrase 12): 6.3 nM
remaining at 10 h [1]: 100%
remaining at 5 h [2]: 100%
Ki (Carbonic anhydrase 9): 4.3 nM
remaining at 0 h [3]: 100%
remaining at 24 h [4]: 100%
remaining at 3 h [5]: 100%
Structure (SMILES): NS(=O)(=O)c1ccc(CCNCc2ccccc2)cc1

Ki (Carbonic anhydrase 9): 4.1 nM
Structure (SMILES): NS(=O)(=O)c1ccc(CCNCc2cc(Br)cc(Br)c2O)cc1

Ki (Carbonic anhydrase 9): 3.7 nM
Structure (SMILES): Cc1cccc(CNCCc2ccc(S(N)(=O)=O)cc2)c1O

Ki (Carbonic anhydrase 9): 4.3 nM
Structure (SMILES): NS(=O)(=O)c1ccc(CCNCc2cc(Br)ccc2O)cc1

Ki (Carbonic anhydrase 9): 10.2 nM
Structure (SMILES): Cc1ccc(CNCCc2ccc(S(N)(=O)=O)cc2)cc1

Ki (Carbonic anhydrase 9): 15.6 nM
Structure (SMILES): NS(=O)(=O)c1ccc(CCNCc2cc(Cl)ccc2O)cc1

Ki (Carbonic anhydrase 9): 2.9 nM
Structure (SMILES): NS(=O)(=O)c1ccc(CCNCc2ccc(OCc3ccccc3)cc2)cc1
